Measurements reported in patent US7652006B2, “Substituted 1(2H)-phthalazinones and pharmaceutical compositions thereof” (Euro-Celtique S.A., priority 1998, dated 2010).
Structures can show the parent of a compound that is named as a salt.

Target: AMPA receptors
Assay: electrophysiological assay, AMPA receptors expressed in oocyte
Format: cell-based, rat
Details: inhibiting or modulating AMPA receptors expressed in oocyte; read-out: AMPA IC50
Excerpt: The compounds of the present invention may be assessed by electrophysiological assays in Xenopus oocytes expressing rat whole brain poly(A)^+ RNA (see Keana et. al. J. Med. Chem. 38: 4367-4379 (1995)) or in cultured rat cortical neurons (see Woodward et. al. Mol. Pharmacol. 47: 568-581 (1995)) for AMPA receptor activity. Compounds which are useful for treating or preventing the adverse consequences of stroke, hypoglycemia, neurodegenerative disorders, anxiety, epilepsy or psychosis, or which induce analgesia, will inhibit the currents across the membranes of the oocyte expressing AMPA receptors. However, if the compound potentiates currents across the oocyte membrane, then the compound is expected to be useful in enhancing cognition or treating schizophrenia or neurodegenerative disease such as Parkinson's Disease.
The potency of antagonism or potentiation for these compounds were determined by electrophysiological assay. Potencies of selective compounds described above in inhibiting or modulating AMPA receptors expressed in oocyte and their anticonvulsant activity against maximal electroshock induced convulsion are shown in Table 1.

| Compound | IC50 [µM] |
| --- | --- |
| 1-[2-(N-methylpyrrolidin-1-yl)ethyl]-6,7-methylenedioxy-4-(3,4-methylenedioxyphenyl)quinazoline-2-one | 4 |
| O=c1nc(-c2ccc3c(c2)OCO3)c2cc3c(cc2n1CCN1CCCC1)OCO3 [1-(2-Pyrrolidinylethyl)-6,7-methylenedioxy-4(3,4-methylenedioxyphenyl)quinazolin-2(1H)-one] | 1.6 |
| NCCn1c(=O)nc(-c2ccc3c(c2)OCO3)c2cc3c(cc21)OCO3 [1-(2-aminoethyl)-6,7-methylenedioxy-4-(3,4-methylenedioxyphenyl)quinazoline-2(1H)-one] | 1 |
| CN(C)CCCn1c(=O)nc(-c2ccc3c(c2)OCO3)c2cc3c(cc21)OCO3 [1-(3-Dimethylaminopropyl)-6,7-methylenedioxy-4-(3,4-methlenedioxyphenyl)quinazoline-2-one] | 3 |
| O=c1nc(-c2ccc3c(c2)OCO3)c2cc3c(cc2n1CCn1ccnc1)OCO3 [1-(Imidazol-1-yl)ethyl-6,7-methylenedioxy-4-(3,4-methylenedioxyphenyl)quinazoline-2-one] | 5 |
| O=c1nc(-c2ccc3c(c2)OCO3)c2cc3c(cc2n1CCN1CCCCC1)OCO3 [1-(Piperidin-1-yl)ethyl-6,7-methylenedioxy-4-(3,4-methylenedioxyphenyl)quinazoline-2-one] | 4 |
| CCn1c(=O)nc(-c2cc3c(cc2N)OCO3)c2cc3c(cc21)OCO3 [1-Ethyl-6,7-methylenedioxy-4-(2-amino-4,5-methylenedioxyphenyl)quinazolin-2(1H)-one] | 7 |
| CCn1c(=O)nc(-c2ccc3ccccc3c2)c2cc3c(cc21)OCO3 [1-Ethyl-6,7-methylenedioxy-4-(2-naphthyl)quinazolin-2(1H)-one] | 5 |
| CCn1c(=O)nc(-c2cc3c(cc2[N+](=O)[O-])OCO3)c2cc3c(cc21)OCO3 [1-Ethyl-6,7-methylenedioxy-4-(3,4-methylenedioxy-6-nitrophenyl)quinazolin-2(1H)-one] | 4.7 |
| CC(C)n1c(=O)nc(-c2ccc3c(c2)OCCO3)c2cc3oc(=O)n(C)c3cc21 [1-Isopropyl-4-(3,4-ethylenedioxyphenyl)-8-methyl-7-oxo-oxazol[5.4-g]quinazolin-2(1H)-one] | 3.2 |
| CC(C)n1c(=O)nc(-c2ccc3c(c2)OCO3)c2cc3oc(=O)n(Cc4ccccc4)c3cc21 [1-Isopropyl-4-(3,4-methylenedioxyphenyl)-8-benzyl-7-oxo-oxazol[5,4-g]quinazolin-2(1H)-one] | 3 |
| O=c1nc(-c2ccc3c(c2)OCO3)c2cc3c(cc2n1CCO)OCO3 [1-[(2-Hydroxy)ethyl]-6,7-methylenedioxy-4-(3,4-methylenedioxyphenyl)quinazoline-2-one] | 1.5 |
| COCCn1c(=O)nc(-c2ccc3c(c2)OCO3)c2cc3c(cc21)OCO3 [1-[(2-Methoxy)ethyl]-6,7-methylenedioxy-4-(3,4-methylenedioxyphenyl)quinazoline-2-one] | 13 |
| O=c1nc(-c2ccc3c(c2)OCO3)c2cc3c(cc2n1CC1CC1)OCO3 [1-cyclopropylmethyl-6,7-methylenedioxy-4-(3,4-methylenedioxyphenyl) quinazolin-2(1H)-one] | 6 |
| [O-][n+]1c(Cn2ccnc2)nc2ccc3c(c2c1-c1ccc2c(c1)OCO2)OCO3 [2-(1-Imidazolyl)methyl-5,6-methylenedioxy-4-(3,4-methylenedioxyphenyl)quinazoline 3-oxide hydrochloride] | 6 |
| CN(C)CCc1nc(-c2ccc3c(c2)OCO3)c2cc3c(cc2n1)OCO3 [2-(2-Dimethylaminoethyl)-4-(3,4-methylenedioxyphenyl)-6,7-methylenedioxyquinazoline] | 8 |
| ClCCCc1nc(-c2ccc3c(c2)OCO3)c2cc3c(cc2n1)OCO3 [2-(3-Chloropropyl)-4-(3,4-methylenedioxyphenyl)-6,7-methylenedioxyquinazoline] | 11 |
| NCCCc1nc(-c2ccc3c(c2)OCO3)c2cc3c(cc2n1)OCO3 [2-(3-aminopropyl)-6,7-methylenedioxy-4-(3,4-methylenedioxyphenyl)quinazoline] | 12 |
| [O-][n+]1c(CN2CCCC2)nc2cc3c(cc2c1-c1ccc2c(c1)OCO2)OCO3 [2-(Pyrrolidin-1-yl)methyl-6,7-methylenedioxy-4-(3,4-methylenedioxyphenyl)quinazoline-3-oxide] | 7 |

| Compound | IC50 [µM] |
| --- | --- |
| Clc1nc(-c2ccc3c(c2)OCO3)c2cc3c(cc2n1)OCO3 [2-Chloro-4-(3,4-methylenedioxyphenyl)-6,7-methylendioxyquinazoline] | 6 |
| CN(C)Cc1nc2cc3c(cc2c(-c2ccc4c(c2)OCO4)[n+]1[O-])OCO3 [2-Dimethylaminomethyl-6,7-methylenedioxy-4-(3,4-methylenedioxyphenyl)quinazoline-3-oxide] | 10 |
| CCOc1nc(-c2ccc3c(c2)OCO3)c2cc3c(cc2n1)OCO3 [2-Ethoxy-6,7-methylenedioxy-4-(3,4-methylenedioxyphenyl)-quinazoline] | 6 |
| CCn1nc(-c2ccc3c(c2)OCO3)c2cc3c(cc2c1=O)OCO3 [2-Ethyl-4-(3,4-methylenedioxyphenyl)-6,7-methylenedioxy-1(2H) -phthalazinone] | 3 |
| CCc1nc(-c2ccc3c(c2)OCO3)c2cc3c(cc2n1)OCO3 [2-Ethyl-4-(3,4-methylenedioxyphenyl)-6,7-methylenedioxyquinazoline] | 4.3 |
| OCc1nc(-c2ccc3c(c2)OCO3)c2cc3c(cc2n1)OCO3 [2-Hydroxymethyl-6,7-methylenedioxy-4-(3,4-methylenedioxyphenyl)quinazoline] | 6 |
| ICc1nc(-c2ccc3c(c2)OCO3)c2cc3c(cc2n1)OCO3 [2-Iodomethyl-6,7-methylenedioxy-4-(3,4-methylenedioxyphenyl)quinazoline] | 7 |
| Cc1nc2cc3c(cc2c(-c2ccc4c(c2)OCO4)[n+]1[O-])OCO3 [2-Methyl-6,7-methylenedioxy-4-(3,4-methylenedioxyphenyl)quinazoline 3-oxide] | 4 |
| CCOC(=O)CCn1nc(-c2ccc3c(c2)OCO3)c2cc3c(cc2c1=O)OCO3 [2-[2(ethoxycarbonyl)ethyl]-4-(3,4-methylenedioxyphenyl)-6,7-methylenedioxy-1(2H)-phthalazinone] | 3 |
| O=c1c2cc3c(cc2c(-c2ccc4c(c2)OCO4)nn1CCn1ccnc1)OCO3 [2-[2-(1-Imidazolyl)ethyl]-4-(3,4-methylenedioxyphenyl)-6,7-methylenedioxy-1(2H)-phthalazinone] | 6 |
| c1cn(CCOc2nc(-c3ccc4c(c3)OCO4)c3cc4c(cc3n2)OCO4)cn1 [2-[2-(Imidazol-1-yl)ethoxy]-6,7-methylenedioxy-4-(3,4-methylenedioxyphenyl)quinazoline] | 10 |
| OCCOc1nc(-c2ccc3c(c2)OCO3)c2cc3c(cc2n1)OCO3 [2-[(2-Hydroxy)ethoxy]-6,7-methylenedioxy-4-(3,4-methylenedioxyphenyl)quinazoline] | 4 |
| CN(C)CCCCCOc1nc(-c2ccc3c(c2)OCO3)c2cc3c(cc2n1)OCO3 [2-[(3-Dimethylaminopropyl)ethoxy]-6,7-methylenedioxy-4-(3,4-methylenedioxyphenyl)quinazoline] | 12 |
| O=c1nc(-c2ccc3c(c2)OCO3)c2cc3c(cc2n1CCN1CCOCC1)OCO3 [4-(4,4-methylenedioxyphenyl)-6,7-methylenedioxy-1-(2-morpholinylethyl)-quinazolin-2(1H)-one] | 4 |
| CC(C)n1c(=O)nc(-c2ccc3c(c2)OCO3)c2cc3c(cc21)OCCO3 [6,7-Ethylenedioxy-1-isopropyl-4-(3,4-methylenedioxyphenyl)quinazolin-2(1H)-one] | 7 |
| c1cc2c(cc1-c1nc(CN3CCNCC3)nc3cc4c(cc13)OCO4)OCO2 [6,7-Methylenedioxy-2-(piperazin-1-yl)methyl-4-(3,4-methylenedioxyphenyl)quinazoline] | 12 |
| Cc1nc(-c2ccc3c(c2)OCO3)c2cc3c(cc2n1)OCO3 [6,7-Methylenedioxy-4-(3,4-methylenedioxyphenyl)-2-methylquinazoline] | 4.5 |
| CC(C)(O)c1nc(-c2ccc3c(c2)OCO3)c2cc3c(cc2n1)OCO3 [6,7-methylenedioxy-4-(3,4-methylenedioxyphenyl)-2-(1-hydroxy-1-methylethyl)quinazoline] | 6 |

Same assay, conditions: read-out: AMPA IC50; inhibiting or modulating AMPA receptors expressed in oocyte

| Compound | IC50 [µM] |
| --- | --- |
| ClCCc1nc(-c2ccc3c(c2)OCO3)c2cc3c(cc2n1)OCO3 [2-(2-Chloroethyl)-6,7-methylenedioxy-4-(3,4-methylenedioxyphenyl)quinazoline] | 3 |

Tested on: not given
Assay: not given
Details: not given

| Compound | melting point [°C] |
| --- | --- |
| c1cn(Cc2nc(-c3ccc4c(c3)OCO4)c3cc4c(cc3n2)OCO4)cn1 | 182 to 185 |
| CC(=O)OCc1nc(-c2ccc3c(c2)OCO3)c2cc3c(cc2n1)OCO3 | 144 to 147 |
| c1cc2c(cc1-c1nc(OCC3CC3)nc3cc4c(cc13)OCO4)OCO2 | 175 to 182 |
| CC(C)n1c(=O)nc(-c2ccc(N(C)C)cc2)c2cc3c(cc21)OCO3 | 240 to 245 |
| COc1nc(-c2ccc3c(c2)OCO3)c2cc3c(cc2n1)OCO3 | 216 to 223 |
| CC(CN(C)C)Oc1nc(-c2ccc3c(c2)OCO3)c2cc3c(cc2n1)OCO3 (centres unmarked) | 172 to 175 |
| CC(CN(C)C)On1c(=O)nc(-c2ccc3c(c2)OCO3)c2cc3c(cc21)OCO3 (centres unmarked) | 160 to 165 |
| O=c1nc(-c2ccc3c(c2)OCO3)c2cc3c(cc2[nH]1)OCO3 | > 300 |
| O=c1nc(-c2ccccc2)c2cc3c(cc2[nH]1)OCO3 | 351 to 354 |
